Each structure is given as a SMILES string. Where two headings read alike, the source gives them in different places.

Test [1] has as its system human multiple myeloma cell line, OPM-2. Nature of the test: Cell viability assay (OPM-2 10 FBS), CellTiter-Glo. The format is cell-based. In outline:
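OPM-2 cells at 3000 cells/well in RPMI 1640 with 10% FBS were exposed to serially diluted compounds for 16 h at 37 °C, 5% CO2.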

Test [2] addresses recombinant human Mcl-1 (residues 171-327) / Bim interaction (Homo sapiens (Human), UniProt Q07820). Nature of the test: biochemical. The format is binding. The conditions noted are these: read-out: Mcl-1 HTRF IC50.
Setting [3] is: Homo sapiens, OPM-2, 16 h, read-out: OPM-2 10% FBS IC50 IP, OPM-2 cells, 10% FBS, 16 h, CellTiter-Glo.
Where [4] appears, read: TR-FRET, Mcl-1(171-327) / biotin-Bim (51-76).
The mark [5] stands for this setting: read-out: OPM-2 10% FBS IC50 IP, OPM-2 cells, 10% FBS, 16 h, CellTiter-Glo.

Chain of recombinant human Mcl-1 (residues 171-327) / Bim interaction (Q07820 171-327): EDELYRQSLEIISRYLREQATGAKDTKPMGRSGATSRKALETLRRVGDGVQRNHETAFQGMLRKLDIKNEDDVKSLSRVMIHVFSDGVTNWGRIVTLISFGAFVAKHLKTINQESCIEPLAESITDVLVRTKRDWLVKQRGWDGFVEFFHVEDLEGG

In the case of `CCO[C@]1(CN2CCN3CCS(=O)(=O)C[C@@H]3C2)/C=C/C[C@H](C)[C@@H](C)S(=O)(=O)NC(=O)c2ccc3c(c2)N(C[C@@H]2CC[C@H]21)C[C@@]1(CCCc2cc(Cl)ccc21)CO3` [Example 122], the IC50 in test [1] (read-out: OPM-2 10% FBS IC50 IP, OPM-2 cells, 10% FBS, 16 h incubation) stood at 138 nM; in test [2] (0.1 nM Mcl-1(171-327), 0.05 nM biotin-Bim (51-76)) it was 0.087 nM.
On to `C[C@H](C(=O)N(C)C)[C@]1(O)/C=C/C[C@H](C)[C@@H](C)S(=O)(=O)NC(=O)c2ccc3c(c2)N(C[C@@H]2CC[C@H]21)C[C@@]1(CCCc2cc(Cl)ccc21)CO3` [Example 100125, (2S)-2-((1S,3′R,6′R,7′S,8′E,11′S,12′R)-6-chloro-7′-hydroxy-11′,12′-dimethyl-13′,13′-dioxido-15′-oxo-3,4-dihydro-2H-spiro[naphthalene-1,22′-[20]oxa[13]thia[1,14]diazatetracyclo [14.7.2.0~3,6~.0~19,24~]pentacosa[8,16,18,24]tetraen]-7′-yl)-N,N-dimethylpropanamide], for which the values for the IC50 in test [1] (setting [3]) and in test [2] (setting [4]) were 555 nM and 0.43 nM, respectively.
For `CCOC(=O)COC[C@]1(OCC(=O)OCC)CCCC[C@@H](CC)S(=O)(=O)NC(=O)c2ccc3c(c2)N(C[C@@H]2CC[C@H]21)C[C@@]1(CCCc2cc(Cl)ccc21)CO3` [Example 100042, ethyl (((1S,3′R,6′R,7′S,12′R)-6-chloro-7′-(2-ethoxy-2-oxoethoxy)-12′-ethyl-13′,13′-dioxido-15′-oxo-3,4-dihydro-2H-spiro[naphthalene-1,22′-[20]oxa[13]thia[1,14]diazatetracyclo [14.7.2.0~3,6~.0~19,24~]pentacosa[16,18,24]trien]-7′-yl)methoxy)acetate], in that order: 2220 nM and 4.86 nM.
For `C[C@@H]1[C@@H](C)C/C=C/[C@@]2(COCCO2)[C@@H]2CC[C@H]2CN2C[C@@]3(CCCc4cc(Cl)ccc43)COc3ccc(cc32)C(=O)NS1(=O)=O` [Example 100233, (2S,3′R,6′R,8′E,11′S,12′R,22′S)-6″-chloro-11′,12′-dimethyl-3″,4″-dihydro-2″H,15′H-dispiro[1,4-dioxane-2,7′-[20]oxa[13]thia[1,14]diazatetracyclo [14.7.2.0~3,6~.0~19,24~]pentacosa[8,16,18,24]tetraene-22′,1″-naphthalen]-15′-one 13′,13′-dioxide], the IC50 was found to be 257 nM in test [1] (setting [5]) and 1.04 nM in test [2] (setting [4]).
On to `CNC(=O)C[C@@]1(O)CCC[C@H](C)[C@@H](C)S(=O)(=O)NC(=O)c2ccc3c(c2)N(C[C@@H]2CC[C@H]21)C[C@@]1(CCCc2cc(Cl)ccc21)CO3` (single isomer, unassigned) [Example 100103], for which the results for the IC50 in test [1] (setting [3]) and in test [2] (setting [4]) were 778 nM and 0.325 nM, respectively.
For `C[C@@H]1[C@@H](C)CCC[C@@](O)(CC(=O)N2CCOC2=O)[C@@H]2CC[C@H]2CN2C[C@@]3(CCCc4cc(Cl)ccc43)COc3ccc(cc32)C(=O)NS1(=O)=O` (stereo in doubt) [Example 100154, (1S,3′R,6′R,7′R,11′S,12′R)-6-chloro-7′-hydroxy-11′,12′-dimethyl-7′-(2-oxo-2-(2-oxo-1,3-oxazolidin-3-yl)ethyl)-3,4-dihydro-2H,15′H-spiro[naphthalene-1,22′-[20]oxa[13]thia[1,14]diazatetracyclo [14.7.2.0~3,6~.0~19,24~]pentacosa[16,18,24]rien]-15′-one 13′,13′-dioxide], the IC50 came out at 1070 nM in test [1] (setting [5]) and 1.72 nM in test [2] (setting [4]).
On to `CO[C@@]1(C2SCCCS2)/C=C/[C@H](C)[C@H](C)CS(=O)(=O)NC(=O)c2ccc3c(c2)N(C[C@@H]2CC[C@H]21)C[C@@]1(CCCc2cc(Cl)ccc21)CO3` [Example 100567, (1S,3′R,6′R,7′S,8′E,10′S,11′S)-6-chloro-7′-(1,3-dithian-2-yl)-7′-methoxy-10′,11′-dimethyl-3,4-dihydro-2H,15′H-spiro[naphthalene-1,22′-[20]oxa[13]thia[1,14]diazatetracyclo [14.7.2.0~3,6~.0~19,24~]pentacosa[8,16,18,24]tetraen]-15′-one 13′,13′-dioxide], for which the results for the IC50 in test [1] (setting [3]) and in test [2] (setting [4]) were 249 nM and 0.125 nM, respectively.

The record behind these values is patent publication US10821115B2, “Compounds that inhibit Mcl-1 protein” (priority 2017, dated 2020).
